Laboratory results from US10231954B2, “Neurodegenerative therapies” (LYTIX BIOPHARMA AS, priority 2014, dated 2019).

Key:
Type in all cases: biochemical
PKBa = PKBa (Homo sapiens, UniProt P31749); assay: Kinase profiling PKBa
From the text: (§1) Any value less that 25 is considered to be highly significant inhibition.

MSK1 = MSK1 (Homo sapiens, UniProt O75582); assay: Kinase profiling MSK1
From the text: as §1

CAMKKb = CAMKKb (Homo sapiens, UniProt Q96RR4); assay: Kinase profiling CAMKKb
From the text: as §1

LKB1 = molecular target: T1, LKB1 (Homo sapiens, UniProt Q15831); assay: Kinase profiling LKB1
T1 sequence (Q15831 1-433): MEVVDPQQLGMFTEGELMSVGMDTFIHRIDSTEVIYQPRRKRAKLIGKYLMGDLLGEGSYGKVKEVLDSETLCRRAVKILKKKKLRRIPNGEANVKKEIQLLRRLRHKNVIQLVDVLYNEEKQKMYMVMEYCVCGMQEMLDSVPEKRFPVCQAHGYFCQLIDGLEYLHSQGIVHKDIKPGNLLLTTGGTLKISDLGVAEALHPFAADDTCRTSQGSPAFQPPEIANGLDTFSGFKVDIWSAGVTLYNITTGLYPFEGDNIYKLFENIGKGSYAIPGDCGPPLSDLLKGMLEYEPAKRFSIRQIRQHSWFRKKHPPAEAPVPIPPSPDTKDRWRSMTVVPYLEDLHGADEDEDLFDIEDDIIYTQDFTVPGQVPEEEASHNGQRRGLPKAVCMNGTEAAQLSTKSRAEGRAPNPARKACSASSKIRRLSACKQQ
T1 sequence (Q7RTN6 1-431 partner): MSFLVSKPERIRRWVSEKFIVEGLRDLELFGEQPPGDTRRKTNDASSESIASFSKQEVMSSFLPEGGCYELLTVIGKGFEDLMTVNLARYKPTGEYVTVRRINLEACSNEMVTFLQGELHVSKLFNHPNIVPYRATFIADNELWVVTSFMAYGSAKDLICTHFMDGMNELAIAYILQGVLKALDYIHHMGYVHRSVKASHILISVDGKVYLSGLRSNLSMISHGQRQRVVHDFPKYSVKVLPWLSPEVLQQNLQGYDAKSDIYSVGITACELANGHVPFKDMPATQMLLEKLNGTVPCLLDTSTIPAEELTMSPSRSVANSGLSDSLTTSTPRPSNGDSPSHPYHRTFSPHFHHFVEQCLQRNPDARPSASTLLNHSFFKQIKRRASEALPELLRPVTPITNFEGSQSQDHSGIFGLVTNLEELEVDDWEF
T1 sequence (Q9Y376 1-341 partner): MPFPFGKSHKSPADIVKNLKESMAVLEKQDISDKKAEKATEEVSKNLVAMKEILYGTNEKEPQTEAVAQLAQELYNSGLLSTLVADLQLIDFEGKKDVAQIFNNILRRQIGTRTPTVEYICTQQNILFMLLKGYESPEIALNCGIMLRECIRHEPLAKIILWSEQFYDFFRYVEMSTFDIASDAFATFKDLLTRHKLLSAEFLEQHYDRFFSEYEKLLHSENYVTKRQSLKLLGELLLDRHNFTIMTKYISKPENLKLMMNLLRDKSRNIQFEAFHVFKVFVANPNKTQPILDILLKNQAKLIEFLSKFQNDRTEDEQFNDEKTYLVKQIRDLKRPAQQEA
From the text: as §1

TBK1 = molecular target: T2, TBK1 (Homo sapiens, UniProt Q9UHD2); assay: Kinase profiling TBK1
T2 sequence (Q9UHD2 1-729): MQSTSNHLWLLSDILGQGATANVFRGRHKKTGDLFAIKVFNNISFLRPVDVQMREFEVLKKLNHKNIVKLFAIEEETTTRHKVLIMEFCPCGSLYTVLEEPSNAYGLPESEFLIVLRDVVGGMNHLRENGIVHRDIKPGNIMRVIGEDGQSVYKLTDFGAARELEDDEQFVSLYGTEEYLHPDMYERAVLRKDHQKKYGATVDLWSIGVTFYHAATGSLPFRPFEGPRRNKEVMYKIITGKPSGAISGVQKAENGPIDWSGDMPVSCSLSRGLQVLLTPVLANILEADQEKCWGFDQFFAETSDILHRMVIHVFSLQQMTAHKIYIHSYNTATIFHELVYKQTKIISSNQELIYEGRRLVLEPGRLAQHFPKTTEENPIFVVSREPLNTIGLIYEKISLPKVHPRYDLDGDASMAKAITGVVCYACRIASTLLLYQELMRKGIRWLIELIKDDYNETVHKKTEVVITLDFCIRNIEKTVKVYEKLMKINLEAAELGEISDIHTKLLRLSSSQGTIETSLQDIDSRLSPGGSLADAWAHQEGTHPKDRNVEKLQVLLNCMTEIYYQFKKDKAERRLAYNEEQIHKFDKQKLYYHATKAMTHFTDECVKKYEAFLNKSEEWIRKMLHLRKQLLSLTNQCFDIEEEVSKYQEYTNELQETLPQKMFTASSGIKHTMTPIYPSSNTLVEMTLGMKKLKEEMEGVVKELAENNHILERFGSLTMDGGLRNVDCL
From the text: as §1

SRPK1 = SRPK1 (Homo sapiens, UniProt Q96SB4); assay: Kinase profiling SRPK1
Chain of SRPK1 (Q96SB4 whole entry, species assumed): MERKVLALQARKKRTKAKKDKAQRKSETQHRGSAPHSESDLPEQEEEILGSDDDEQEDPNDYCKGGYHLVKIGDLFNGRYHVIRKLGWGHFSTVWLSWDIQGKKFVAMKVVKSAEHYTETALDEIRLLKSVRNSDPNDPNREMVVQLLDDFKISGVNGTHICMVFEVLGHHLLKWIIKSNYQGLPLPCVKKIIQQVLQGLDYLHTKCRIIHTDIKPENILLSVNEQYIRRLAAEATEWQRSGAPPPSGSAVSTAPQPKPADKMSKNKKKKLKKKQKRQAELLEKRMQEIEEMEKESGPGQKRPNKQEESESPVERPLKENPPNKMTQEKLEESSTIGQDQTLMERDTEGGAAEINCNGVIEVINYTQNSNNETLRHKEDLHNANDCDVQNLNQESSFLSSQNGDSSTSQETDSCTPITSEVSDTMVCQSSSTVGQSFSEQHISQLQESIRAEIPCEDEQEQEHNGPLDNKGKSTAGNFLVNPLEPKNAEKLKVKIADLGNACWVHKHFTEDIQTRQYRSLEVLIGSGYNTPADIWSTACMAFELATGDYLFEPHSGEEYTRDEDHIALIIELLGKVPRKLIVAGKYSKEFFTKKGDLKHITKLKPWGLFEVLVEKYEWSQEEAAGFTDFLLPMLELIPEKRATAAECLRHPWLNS
From the text: as §1

EF2K = EF2K (Homo sapiens, UniProt O00418); assay: Kinase profiling EF2K
From the text: as §1

MST2 = molecular target: T3, MST2 (Homo sapiens, UniProt Q13188); assay: Kinase profiling MST2
T3 sequence (Q13188 1-491): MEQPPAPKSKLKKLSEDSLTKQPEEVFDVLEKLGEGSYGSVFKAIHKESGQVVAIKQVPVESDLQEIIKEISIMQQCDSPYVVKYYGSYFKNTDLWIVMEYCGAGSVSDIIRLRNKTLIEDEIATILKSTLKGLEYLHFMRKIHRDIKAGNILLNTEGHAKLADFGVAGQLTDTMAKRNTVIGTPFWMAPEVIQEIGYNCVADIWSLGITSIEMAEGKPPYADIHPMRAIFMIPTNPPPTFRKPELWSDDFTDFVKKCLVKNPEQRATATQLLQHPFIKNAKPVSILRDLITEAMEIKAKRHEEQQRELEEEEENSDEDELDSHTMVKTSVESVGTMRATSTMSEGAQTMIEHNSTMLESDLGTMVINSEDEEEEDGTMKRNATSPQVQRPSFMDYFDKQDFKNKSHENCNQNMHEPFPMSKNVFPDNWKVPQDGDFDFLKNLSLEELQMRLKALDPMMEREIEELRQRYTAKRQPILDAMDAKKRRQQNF
From the text: as §1

SYK = SYK (Homo sapiens, UniProt P43405); assay: Kinase profiling SYK
From the text: as §1

[1] = 100 micromolar inhibitor concentration, 100 is no change
[2] = 100 micromolar inhibitor, 100 = no change

Chain of CAMKKb (Q96RR4 whole entry, species assumed): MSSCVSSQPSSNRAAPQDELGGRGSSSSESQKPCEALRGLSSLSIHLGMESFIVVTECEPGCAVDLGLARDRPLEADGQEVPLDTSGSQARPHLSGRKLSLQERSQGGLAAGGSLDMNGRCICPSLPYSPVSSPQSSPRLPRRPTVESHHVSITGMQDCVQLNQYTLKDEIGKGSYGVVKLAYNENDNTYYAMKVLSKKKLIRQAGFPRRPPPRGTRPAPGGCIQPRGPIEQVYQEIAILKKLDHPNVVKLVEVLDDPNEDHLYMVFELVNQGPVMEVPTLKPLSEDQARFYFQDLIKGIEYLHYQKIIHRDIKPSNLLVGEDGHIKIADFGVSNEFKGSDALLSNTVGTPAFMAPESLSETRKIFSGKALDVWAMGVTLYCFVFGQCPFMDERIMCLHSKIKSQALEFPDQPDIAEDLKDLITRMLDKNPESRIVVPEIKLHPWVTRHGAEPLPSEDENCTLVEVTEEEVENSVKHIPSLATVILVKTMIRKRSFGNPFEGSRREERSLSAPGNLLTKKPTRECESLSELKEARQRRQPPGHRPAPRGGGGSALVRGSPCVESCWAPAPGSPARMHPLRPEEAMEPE
Chain of MSK1 (O75582 whole entry, species assumed): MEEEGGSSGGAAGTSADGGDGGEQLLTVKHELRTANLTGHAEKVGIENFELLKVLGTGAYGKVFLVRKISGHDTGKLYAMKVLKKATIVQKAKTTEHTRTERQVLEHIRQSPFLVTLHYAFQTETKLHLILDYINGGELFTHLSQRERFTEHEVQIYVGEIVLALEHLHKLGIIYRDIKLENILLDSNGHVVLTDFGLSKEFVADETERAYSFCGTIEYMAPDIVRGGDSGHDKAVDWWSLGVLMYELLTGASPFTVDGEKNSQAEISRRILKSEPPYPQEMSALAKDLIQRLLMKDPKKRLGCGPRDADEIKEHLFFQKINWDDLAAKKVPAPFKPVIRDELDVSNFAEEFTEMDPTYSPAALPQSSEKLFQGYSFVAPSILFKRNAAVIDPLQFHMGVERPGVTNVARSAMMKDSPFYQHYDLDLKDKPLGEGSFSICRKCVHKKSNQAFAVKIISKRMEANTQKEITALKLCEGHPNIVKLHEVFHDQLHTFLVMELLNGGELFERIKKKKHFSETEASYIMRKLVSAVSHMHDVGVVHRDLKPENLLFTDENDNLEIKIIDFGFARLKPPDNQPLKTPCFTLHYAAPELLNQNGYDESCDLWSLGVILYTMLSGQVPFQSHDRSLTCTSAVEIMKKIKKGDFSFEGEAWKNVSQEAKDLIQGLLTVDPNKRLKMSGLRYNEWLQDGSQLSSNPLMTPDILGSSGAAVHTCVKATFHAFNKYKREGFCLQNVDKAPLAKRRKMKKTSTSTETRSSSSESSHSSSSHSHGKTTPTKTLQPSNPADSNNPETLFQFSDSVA
Chain of PKBa (P31749 whole entry): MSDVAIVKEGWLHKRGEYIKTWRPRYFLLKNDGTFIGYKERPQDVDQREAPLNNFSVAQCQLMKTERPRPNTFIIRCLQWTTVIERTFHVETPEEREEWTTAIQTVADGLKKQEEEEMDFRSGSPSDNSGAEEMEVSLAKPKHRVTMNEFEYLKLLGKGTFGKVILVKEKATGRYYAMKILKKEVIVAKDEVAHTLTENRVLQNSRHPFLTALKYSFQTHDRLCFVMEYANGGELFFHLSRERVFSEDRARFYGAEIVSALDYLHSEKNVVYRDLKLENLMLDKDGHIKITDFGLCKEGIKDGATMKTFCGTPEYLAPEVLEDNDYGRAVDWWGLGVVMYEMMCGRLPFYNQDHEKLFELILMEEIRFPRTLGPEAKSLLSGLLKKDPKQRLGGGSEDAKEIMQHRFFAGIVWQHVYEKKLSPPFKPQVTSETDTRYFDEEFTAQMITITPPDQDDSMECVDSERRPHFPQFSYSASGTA

## O=C(Nc1nc2ccc(F)cc2s1)c1ccccc1 [Compound 03-92]
PKBa; [1]
  residual kinase activity, PKBa: 99
MSK1; [1]
  residual kinase activity, MSK1: 81
CAMKKb; [1]
  residual kinase activity, CAMKKb: 80
LKB1; [1]
  residual kinase activity, LKB1: 100
TBK1; [1]
  residual kinase activity, TBK1: 92
SRPK1; [1]
  residual kinase activity, SRPK1: 19
EF2K; [1]
  residual kinase activity, EF2K: 134
MST2; [1]
  residual kinase activity, MST2: 110
SYK; [1]
  residual kinase activity, SYK: 117

## CC(=O)Nc1nc2ccc(F)cc2s1 [Compound 03-94]
PKBa; [1]
  residual kinase activity, PKBa: 94
MSK1; [1]
  residual kinase activity, MSK1: 88
CAMKKb; [1]
  residual kinase activity, CAMKKb: 67
LKB1; [1]
  residual kinase activity, LKB1: 46
TBK1; [1]
  residual kinase activity, TBK1: 91
SRPK1; [1]
  residual kinase activity, SRPK1: 75
EF2K; [1]
  residual kinase activity, EF2K: 96
MST2; [1]
  residual kinase activity, MST2: 91
SYK; [1]
  residual kinase activity, SYK: 96

## COc1ccc2sc(NC(=O)c3ccccc3)nc2c1 [Compound 03-95]
PKBa; [1]
  residual kinase activity, PKBa: 80
MSK1; [1]
  residual kinase activity, MSK1: 67
CAMKKb; [1]
  residual kinase activity, CAMKKb: 54
LKB1; [1]
  residual kinase activity, LKB1: 72
TBK1; [1]
  residual kinase activity, TBK1: 100
SRPK1; [1]
  residual kinase activity, SRPK1: 42
EF2K; [1]
  residual kinase activity, EF2K: 115
MST2; [1]
  residual kinase activity, MST2: 95
SYK; [1]
  residual kinase activity, SYK: 83

## COc1ccc2nc(NC(=O)c3ccccc3)sc2c1 [Compound 03-98]
PKBa; [1]
  residual kinase activity, PKBa: 103
MSK1; [1]
  residual kinase activity, MSK1: 90
CAMKKb; [1]
  residual kinase activity, CAMKKb: 45
LKB1; [1]
  residual kinase activity, LKB1: 118
TBK1; [1]
  residual kinase activity, TBK1: 95
SRPK1; [1]
  residual kinase activity, SRPK1: 10
EF2K; [1]
  residual kinase activity, EF2K: 108
MST2; [1]
  residual kinase activity, MST2: 86
SYK; [1]
  residual kinase activity, SYK: 109

## O=C(Nc1nc2ccc(C(F)(F)F)cc2s1)c1ccccc1 [Compound 03-99]
PKBa; [1]
  residual kinase activity, PKBa: 91
MSK1; [1]
  residual kinase activity, MSK1: 70
CAMKKb; [1]
  residual kinase activity, CAMKKb: 86
LKB1; [1]
  residual kinase activity, LKB1: 103
TBK1; [1]
  residual kinase activity, TBK1: 96
SRPK1; [1]
  residual kinase activity, SRPK1: 61
EF2K; [1]
  residual kinase activity, EF2K: 99
MST2; [1]
  residual kinase activity, MST2: 93
SYK; [1]
  residual kinase activity, SYK: 120

## O=C(Nc1nc2cc(O)ccc2s1)c1ccccc1 [Compound 03-102]
PKBa; [1]
  residual kinase activity, PKBa: 88
MSK1; [1]
  residual kinase activity, MSK1: 72
CAMKKb; [1]
  residual kinase activity, CAMKKb: 32
LKB1; [1]
  residual kinase activity, LKB1: 33
TBK1; [1]
  residual kinase activity, TBK1: 66
SRPK1; [1]
  residual kinase activity, SRPK1: 10
EF2K; [1]
  residual kinase activity, EF2K: 92
MST2; [1]
  residual kinase activity, MST2: 46
SYK; [1]
  residual kinase activity, SYK: 80

## COC(=O)c1cccc(C(=O)Nc2nc3ccc(C(F)(F)F)cc3s2)c1 [Compound 03-105, Methyl 3-((6-(trifluoromethyl)benzo[d]thiazol-2-yl)carbamoyl)benzoate]
PKBa; read-out: residual kinase activity, PKBa
  remaining activity at 100 µM: 92%
MSK1; read-out: residual kinase activity, MSK1
  remaining activity at 100 µM: 84%
CAMKKb; read-out: residual kinase activity, CAMKKb
  remaining activity at 100 µM: 48%
LKB1; read-out: residual kinase activity, LKB1
  remaining activity at 100 µM: 91%
TBK1; read-out: residual kinase activity, TBK1
  remaining activity at 100 µM: 101%
SRPK1; read-out: residual kinase activity, SRPK1
  remaining activity at 100 µM: 54%
EF2K; read-out: residual kinase activity, EF2K
  remaining activity at 100 µM: 108%
MST2; read-out: residual kinase activity, MST2
  remaining activity at 100 µM: 99%
SYK; read-out: residual kinase activity, SYK
  remaining activity at 100 µM: 102%

## N#Cc1ccc2nc(NC(=O)c3ccccc3)sc2c1 [Compound 03-106]
PKBa; [1]
  residual kinase activity, PKBa: 67
MSK1; [1]
  residual kinase activity, MSK1: 64
CAMKKb; [1]
  residual kinase activity, CAMKKb: 67
LKB1; [1]
  residual kinase activity, LKB1: 107
TBK1; [1]
  residual kinase activity, TBK1: 94
SRPK1; [1]
  residual kinase activity, SRPK1: 7
EF2K; [1]
  residual kinase activity, EF2K: 100
MST2; [1]
  residual kinase activity, MST2: 103
SYK; [1]
  residual kinase activity, SYK: 93

## COC(=O)c1cccc(C(=O)Nc2nc3cc(OC)ccc3s2)c1 [Compound 03-108]
PKBa; [1]
  residual kinase activity, PKBa: 106
MSK1; [1]
  residual kinase activity, MSK1: 88
CAMKKb; [1]
  residual kinase activity, CAMKKb: 80
LKB1; [1]
  residual kinase activity, LKB1: 90
TBK1; [1]
  residual kinase activity, TBK1: 102
SRPK1; [1]
  residual kinase activity, SRPK1: 68
EF2K; [1]
  residual kinase activity, EF2K: 91
MST2; [1]
  residual kinase activity, MST2: 77
SYK; [1]
  residual kinase activity, SYK: 96

## COC(=O)c1cccc(C(=O)Nc2nc3ccc(F)cc3s2)c1 [Compound 03-110]
PKBa; [1]
  residual kinase activity, PKBa: 109
MSK1; [1]
  residual kinase activity, MSK1: 77
CAMKKb; [1]
  residual kinase activity, CAMKKb: 62
LKB1; [1]
  residual kinase activity, LKB1: 92
TBK1; [1]
  residual kinase activity, TBK1: 96
SRPK1; [1]
  residual kinase activity, SRPK1: 55
EF2K; [1]
  residual kinase activity, EF2K: 94
MST2; [1]
  residual kinase activity, MST2: 88
SYK; [1]
  residual kinase activity, SYK: 79

## COc1ccc2sc(NC(=O)c3cccc(C(N)=O)c3)nc2c1 [Compound 03-113]
PKBa; [1]
  residual kinase activity, PKBa: 89
MSK1; [1]
  residual kinase activity, MSK1: 65
CAMKKb; [1]
  residual kinase activity, CAMKKb: 70
LKB1; [1]
  residual kinase activity, LKB1: 95
TBK1; [1]
  residual kinase activity, TBK1: 98
SRPK1; [1]
  residual kinase activity, SRPK1: 82
EF2K; [1]
  residual kinase activity, EF2K: 127
MST2; [1]
  residual kinase activity, MST2: 119
SYK; [1]
  residual kinase activity, SYK: 108

## COc1ccc2nc(C(=O)Nc3ccccc3)sc2c1 [Compound 13-03]
PKBa; [2]
  residual kinase activity, PKBa: 106
MSK1; [2]
  residual kinase activity, MSK1: 97
CAMKKb; [2]
  residual kinase activity, CAMKKb: 91
LKB1; [2]
  residual kinase activity, LKB1: 110
TBK1; [2]
  residual kinase activity, TBK1: 98
SRPK1; [2]
  residual kinase activity, SRPK1: 86
EF2K; [2]
  residual kinase activity, EF2K: 110
MST2; [2]
  residual kinase activity, MST2: 107
SYK; [2]
  residual kinase activity, SYK: 37
